Experiments:
Assay type in all cases: functional
Heliothis virescens [1] = assay: Antifeedant activity in Heliothis virescens at 24.8 ug/cm'2 after 2 days relative to control
Heliothis virescens [2] = assay: Antifeedant activity in Heliothis virescens at 247.5 ug/cm'2 after 4 days relative to control
Heliothis virescens [3] = assay: Antifeedant activity in Heliothis virescens at 7.7 ug/cm'2 after 4 days relative to control
Heliothis virescens [4] = assay: Antifeedant activity in Heliothis virescens at 247.5 ug/cm'2 after 2 days relative to control
Heliothis virescens [5] = assay: Antifeedant activity in Heliothis virescens at 76.7 ug/cm'2 after 4 days relative to control
Heliothis virescens [6] = assay: Antifeedant activity in Heliothis virescens at 7.7 ug/cm'2 after 6 days relative to control
Heliothis virescens [7] = assay: Antifeedant activity in Heliothis virescens at 24.8 ug/cm'2 after 4 days relative to control
Heliothis virescens [8] = assay: Antifeedant activity in Heliothis virescens at 247.5 ug/cm'2 after 6 days relative to control
Heliothis virescens [9] = assay: Antifeedant activity in Heliothis virescens at 24.8 ug/cm'2 after 6 days relative to control
Heliothis virescens [10] = assay: Antifeedant activity in Heliothis virescens at 0.25 ug/cm'2 relative to dithane
Heliothis virescens [11] = assay: Antifeedant activity in Heliothis virescens at 7.7 ug/cm'2 after 2 days relative to control
Heliothis virescens [12] = assay: Antifeedant activity in Heliothis virescens at 76.7 ug/cm'2 after 6 days relative to control
Heliothis virescens [13] = assay: Antifeedant activity in Heliothis virescens at 76.7 ug/cm'2 after 2 days relative to control

`Cc1c(O)c(C=O)c(O)c(C(=O)CCc2ccccc2)c1O` was tested, and the Activity (Heliothis virescens [1]) was 90%, the Activity (Heliothis virescens [2]) was 60% and the Activity (Heliothis virescens [3]) was 60%. For the same compound, the Activity (Heliothis virescens [4]) was 90%, the Activity (Heliothis virescens [5]) was 60% and the Activity (Heliothis virescens [6]) was 30%. For the same compound, the Activity (Heliothis virescens [7]) was 60%, the Activity (Heliothis virescens [8]) was 60% and the Activity (Heliothis virescens [9]) was 30%. The Activity (Heliothis virescens [10]) was 90%, the Activity (Heliothis virescens [11]) was 60% and the Activity (Heliothis virescens [12]) was 60%. The Activity (Heliothis virescens [13]) was 90%.
